In patent US20090054235A1, “Benzoheterocyclylethylbenzamide derivatives” (priority 2005, published 2009) one finds protection data, which are given here for 4 compounds.

The test has as its system Pyrenophora teres. In words: In vivo test on Pyrenophora teres (preventive spray on barley plants). The conditions noted are these: barley plants (Express variety), grading 12 days after contamination, in comparison with control plants. How it is done:
The active ingredient tested is prepared by potter homogenisation in a concentrated suspension type formulation at 100 g/l. This suspension is then diluted with water to obtain the desired active material concentration.
Barley plants (Express variety) in starter cups, sown on a 50/50 peat soil-pozzolana substrate and grown at 12° C., are treated at the 1-leaf stage (10 cm tall) by spraying with the aqueous suspension described above. Plants, used as controls, are treated with an aqueous solution not containing the active material. After 24 hours, the plants are contaminated by spraying them with an aqueous suspension of Pyrenophora teres spores (12,000 spores per ml). The spores are collected from a 12-day-old culture. The contaminated barley plants are incubated for 24 hours at about 20° C. and at 100% relative humidity, and then for 12 days at 80% relative humidity.
Grading is carried out 12 days after the contamination, in comparison with the control plants.

`O=C(NCCc1c[nH]c2ccc(Br)cc12)c1ccccc1I` [N.[2-(5-bromo-1H-indol-3-yl)ethyl]-2-iodobenzamide]: the protection result (dose of 500 ppm) is recorded as “no protection at all”.

For the compound `O=C(NCCc1c[nH]c2ccc(Br)cc12)c1ccccc1C(F)F` [N.[2-(5-bromo-1H-indol-3-yl)ethyl]-2-(difluoromethyl)benzamide], the protection entry (dose of 500 ppm) is given as “no protection at all”.

Regarding `O=C(NCCc1c[nH]c2ccc(Br)cc12)c1ccccc1Cl` [N.[2-(5-bromo-1H-indol-3-yl)ethyl]-2-chlorobenzamide], where the note is “dose of 500 ppm”, the protection result is recorded as “no protection at all”.

On to `O=C(NCCc1c[nH]c2ccc(Br)cc12)c1ccccc1C(F)(F)F` [N.[2-(5-bromo-1H-indol-3-yl)ethyl]-2-(trifluoromethyl)benzamide], for which the protection result (dose of 330 ppm) was “no protection at all”.
